{"source": "patent US12226443B2", "about": "“Polyphenol composition and method of its use and manufacture in the treatment of metabolic disorders” (Vidya Herbs, Inc., priority 2018, dated 2025)", "assay": "DPPH scavenging assay", "details": "composition at 100 μg/ml", "protocol": "The free radical scavenging capacity of the composition was determined using DPPH scavenging assay (Braca et al. 2001). DPPH solution was prepared in 95% methanol. Freshly prepared DPPH solution was taken in test tubes and different concentration of the composition (20-100 μg/mL) were added and incubated for 20 min. The absorbance was read at 517 nm using a spectrophotometer. Blank was prepared containing the same volume of reaction mixture without any test samples. The percentage of scavenging was calculated using formula: % Scavenging=Ac−As/Ac×100 Where AC was the absorbance of the control (blank without extract) and As was the absorbance in the presence of the extract."}
{"compound": "O=C1O[C@H]([C@@H](O)CO)C(O)=C1O", "note": "[ascorbic acid]", "values": [{"measurement": "DPPH radical scavenging, maximum activity", "value": 96.71, "unit": "%"}]}
